Experimental data published in patent US20250382298A1, “NITROGEN-CONTAINING COMPOUND AND USE THEREOF” (SUZHOU GENHOUSE BIO CO., LTD., priority 2022, published 2025).

Experiments:
[1] = tested on: OVCAR3 cells; experiment: Detection of OVCAR3 cell proliferation activity by CTG method; type: cell-based; conditions: Homo sapiens, OVCAR-3, 168 h, CellTiter-Glo, 7 days
Source text: (§1) This assay can be used to examine the potency of compounds in inhibiting the proliferation of tumor cells (OVCAR3, HT-29, BT-549, HCT-116). A lower IC50 value indicates high potency of the compound as a KIF18A inhibitor in the following assay setup,
1640 medium; fetal bovine serum; penicillin/streptomycin antibiotics purchased from Wisent; CellTiter-Glo (chemiluminescence detection reagent for cell viability) reagent purchased from Promega; OVCAR3 cell line purchased from Nanjing Cobioer Biosciences Co., Ltd.; Nivo multimode microplate reader (PerkinElmer),
OVCAR3 cells were seeded into a white 96-well plate, with 80 μL of cell suspension containing 2000 OVCAR3 cells added to each well. The cell plate was incubated in a CO2 incubator overnight.
A test compound was 5-fold diluted to the 8th concentration (i.e., from 2 mM to […]) using a multichannel pipette, with duplicate wells set up. To an intermediate plate was added 78 μL of medium, and the serially diluted compound was transferred to the corresponding wells of the intermediate plate at 2 μL/well. The mixture was mixed well and then transferred to the cell plate at 20 μL/well. The concentration of the compound transferred to the cell plate ranged from 10 μM to 0.026 nM. The cell plate was incubated in a CO2 incubator for 7 days. Another cell plate was prepared and read for signal values on the day of compound addition, and these values were used as the maximum values (the Max value in the equation below) in data analysis. To this cell plate was added the chemiluminescence detection reagent for cell viability at 25 μL/well, and the luminescence signals were stabilized by incubation at room temperature for 10 min. Readings were taken using the multimode microplate reader.
To the cell plate was added the chemiluminescence detection reagent for cell viability at 25 μL/well, and the luminescence signals were stabilized by incubation at room temperature for 10 mm. Readings were taken using the multimode microplate reader, […]

[2] = tested on: BT-549 cells; experiment: Detection of cell proliferation activity by CCK8 method (BT-549); type: cell-based; conditions: Homo sapiens, CCK8, 96 h
Source text: as §1
(§2) McCoy's 5A medium purchased from Sangon Biotech; CCK8 kit purchased from Beyotime; OVCAR3, HT-29, HCT-116, and BT-549 cells purchased from Shanghai Fuheng Biotechnology Co., Ltd.; multimode microplate reader (Thermo).
(§3) Cells at the logarithmic growth phase were taken, digested with a cell lysis buffer (trypsin), centrifuged, counted, and seeded into a 96-well plate at an appropriate cell density (BT549: 1500 cells/well in 1640 medium. HT-29 and HCT-116: 2000 cells/well in McCoy's 5A medium), with 180 μL per well, for a total of 60 wells. The surrounding wells were filled with an equal amount of PBS to prevent water evaporation from the edge wells. The next day after cell plating, the test compounds at different concentration gradients (with an initial final concentration of 10 μM, diluted in a 1:5 gradient to obtain 9 concentration gradients) were added to the wells. Three replicate wells were set up for each concentration point, and a corresponding DMSO negative control group was also set up. Detection: After 96 h of drug treatment, the test cell culture plate was removed from the incubator. All the liquid in the 96-well plate was aspirated, and 100 μL of medium containing 10% CCK8 solution was added to each well. The plate was then incubated at 37° C. for 2 h (the OD450 of the DMSO group reached 1.5 or more), and the absorbance at 450 nm was measured using a microplate reader
(§4) After the background value was subtracted from the measurement for each well, the inhibition rate was calculated. Inhibition Rate (%)=(1−Sample/Vehicle)×100. Sample is the luminescence value of the drug treatment group, and Vehicle is the luminescence value of the DMSO control group. A sigmoidal dose-survival rate curve was plotted using a non-linear regression model in the GraphPad Prism 7.0 software, and the IC50 values were calculated.

[3] = tested on: HCT-116 cells; experiment: Mitotic index analysis, pH3 expression in HCT-116 cells; type: cell-based; conditions: Homo sapiens, 24 h treatment
Method: (§5) HCT-116 and HT-29 cells at the logarithmic growth phase were taken, digested with a cell lysis buffer (trypsin), centrifuged, counted, and seeded into a 96-well plate at an appropriate cell density (20000 cells/well), with 100 μL per well. The surrounding wells were filled with an appropriate amount of PBS to prevent water evaporation. The next day, the cells were treated with the compounds at different concentrations (with a starting concentration of 10 μM, 3-fold diluted to obtain 9 concentration gradients). After 24 h, the medium was aspirated, and the cells were washed twice with 100 μL of PBS. The cells were then fixed with 4% paraformaldehyde and incubated at room temperature for 15 min. The fixative solution was discarded, and the cells were washed with PBS. Then, 150 μL of specialized blocking solution (containing 1% Triton-100) was added to each well for blocking at room temperature for 2 h, and the plate was washed with PBS to remove excess blocking solution. Anti-phistone H3 (pH3) was diluted at a ratio of 1:1000 with a blocking solution containing 0.033% Triton-100, and a blank control group was set up. Then, incubation was performed at 4° C. overnight. The next day, the plate was washed twice with 1×PBST. Anti-rabbit-IgG (H+L) (CST) and DRAQ5 (Thermofisher) were each diluted at an appropriate ratio with a blocking solution containing 0.033% Triton-100 (secondary antibody: 1:2000; DRAQ5: 1:10000). Then, incubation was performed at room temperature for 2 h. The plate was washed twice with 1×PBST and once with PBS. Fluorescence signals at 700 nm and 800 nm were detected using a Li—COR Odyssey two-color near-infrared laser imager. Calculation was performed as follows: pH3 expression (%)=(Cmpd dose/DMSO control)×100. Cmpd dose is the value of the drug treatment group, and DMSO control is the value of the DMSO control group. The EC50 values were determined by fitting using the GraphPad Prism 7.0 software.

[4] = tested on: HCT-116 cells; experiment: Detection of cell proliferation activity by CCK8 method (HCT-116); type: cell-based; conditions: Homo sapiens, CCK8, 96 h
Source text: as §1, §2, §3, §4

[5] = tested on: HT-29 cells; experiment: Mitotic index analysis, pH3 expression in HT-29 cells; type: cell-based, human; conditions: Homo sapiens, 24 h treatment
Method: as §5

[6] = tested on: HT-29 cells; experiment: Detection of cell proliferation activity by CCK8 method (HT-29); type: cell-based, human; conditions: Homo sapiens, CCK8, 96 h
Source text: as §1, §2, §3, §4

[7] = tested on: OVCAR3 cells; experiment: Detection of cell proliferation activity by CCK8 method (OVCAR3); type: cell-based; conditions: Homo sapiens, OVCAR-3, CCK8, 96 h
Source text: as §1, §2, §3, §4

O=C(Nc1csc(C2CCC(F)(F)CC2)n1)c1ccc(NS(=O)(=O)CCO)cc1N1CCC2(CC1)CC2 [Compound 1] showed an IC50 [1] of 167 nM.
Molecule O=C(Nc1nc(N2CCC(F)(F)CC2)nc2ccccc12)c1ccc(NS(=O)(=O)CCO)cc1N1CCC2(CC1)CC2 [Compound 2] has an IC50 [1] of 5220 nM.
Molecule Cc1cc(NC(=O)c2ccc(NS(=O)(=O)CCO)cc2N2CC3CC(C3)C2)nc(N2CCC(F)(F)CC2)n1 [Compound 4] has an IC50 [1] of 186 nM.
For Cc1cc2nc(NC(=O)c3ccc(NS(=O)(=O)CCO)cc3N3CCC4(CC3)CC4)nc(N3CCC(F)(F)CC3)c2s1 [Compound 7], the IC50 [1] was 2010 nM.
O=C(Nc1cc2ccccc2c(N2CCC(F)(F)CC2)n1)c1ccc(NS(=O)(=O)CCO)cc1N1CC2CCC(C2)C1 [Compound 9] was tested, and the IC50 [1] was 122 nM.
Work on O=C(Nc1cc2nccn2c(N2CCC(F)(F)CC2)n1)c1ccc(NS(=O)(=O)CCO)cc1N1CCC2(CC1)CC2 [Compound 16] yielded an IC50 [2] of 192 nM, an EC50 [3] greater than 10000 nM and an IC50 [4] greater than 10000 nM. It also gave an EC50 [5] of 94 nM, an IC50 [1] of 53 nM and an IC50 [6] of 338 nM.
Work on O=C(Nc1cn2ccnc2c(N2CC3CCC(C3)C2)n1)c1ccc(NS(=O)(=O)CCO)cc1N1CCC2(CC1)CC2 [Compound 30] yielded an IC50 [2] of 105 nM, an EC50 [3] greater than 10000 nM and an IC50 [4] greater than 10000 nM. It also gave an IC50 [7] of 30.4 nM, an EC50 [5] of 47.6 nM and an IC50 [1] of 64.2 nM. For the same molecule, the IC50 [6] was 73.9 nM.
